According to US20260001879A1, “COMPOUNDS AS MYT1 INHIBITORS” (WIGEN BIOMMEDICINE TECHNOLOGY (SHANGHAI) CO., LTD., priority 2022, published 2026):

Target: recombinant protein MYT1 (Homo sapiens (Human), UniProt Q99640)
Experiment: In vitro assay for inhibiting MYT1 kinase activity (ADP-GLO)
Assay type: biochemical
Conditions: 10 μM ATP, read-out: Inhibitory activity against recombinant protein MYT1 IC50
Protocol: Recombinant MYT1 protein and the compounds were pre-incubated at room temperature for 15 min, and 10 μM ATP was then added to start the reaction. The mixture was incubated at room temperature for another 60 min, and the ADP-GLO reagent from Promega was then added. The resulting mixture was incubated in the dark for 40 min, a detection solution was then added, and the mixture was incubated for another 45-60 min. The chemiluminescence was determined using ENVISION. The inhibition rate and IC50 were calculated compared to the DMSO group.

Sequence of recombinant protein MYT1 (Q99640 whole entry): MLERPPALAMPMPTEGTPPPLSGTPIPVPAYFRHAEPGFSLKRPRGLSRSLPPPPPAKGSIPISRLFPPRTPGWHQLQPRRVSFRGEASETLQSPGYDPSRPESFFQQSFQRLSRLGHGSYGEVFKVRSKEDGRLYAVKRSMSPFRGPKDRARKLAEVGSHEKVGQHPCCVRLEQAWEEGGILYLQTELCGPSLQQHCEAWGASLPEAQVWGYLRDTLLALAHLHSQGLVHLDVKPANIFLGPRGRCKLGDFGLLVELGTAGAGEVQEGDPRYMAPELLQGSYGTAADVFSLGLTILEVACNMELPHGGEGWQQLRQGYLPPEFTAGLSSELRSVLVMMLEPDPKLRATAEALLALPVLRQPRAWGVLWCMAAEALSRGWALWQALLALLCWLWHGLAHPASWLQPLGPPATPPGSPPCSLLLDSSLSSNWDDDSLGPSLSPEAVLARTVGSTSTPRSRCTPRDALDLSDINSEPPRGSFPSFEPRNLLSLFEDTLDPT

IC50 [nM] | Compound
≤ 200 | Cc1cc2c(cc1C#N)c(C(N)=O)c(N)n2-c1c(C)cc(F)c(O)c1C [Compound 163]
≤ 200 | Cc1cc2c(C(N)=O)c(N)n(-c3c(C)c(O)cc4c3COC4)c2nc1C [Compound 124]
≤ 200 | Cc1ccc(O)c(C)c1-n1c(N)c(C(N)=O)c2cc3c(nc21)CCC=C3 [Compound 112]
≤ 200 | Cc1ccc(O)c(C)c1-n1c(N)c(C(N)=O)c2cc3c(nc21)CCN3C [Compound 87]
≤ 200 | Cc1ccc(O)c(C)c1-n1c(N)c(C(N)=O)c2cc3c(nc21)NCCC3 [Compound 103]
≤ 200 | Cc1ccc(O)c(C)c1-n1c(N)c(C(N)=O)c2cc3c(nc21)COCC3 [Compound 32]
≤ 200 | Cc1ccc(O)c(C)c1-n1c(N)c(C(N)=O)c2cc3c(nc21)CC=CC3 [Compound 113]
≤ 200 | Cc1cc2c(C(N)=O)c(N)n(-c3c(C)c(O)cc4c3CCO4)c2nc1C [Compound 121]
≤ 200 | Cc1cc2c(C(N)=O)c(N)n(-c3c(C)ccc(O)c3C)c2cc1C#N [Compound 157]
≤ 200 | Cc1ccc(O)c(C)c1-n1c(N)c(C(N)=O)c2cc3c(nc21)CN(C)CC3 [Compound 99]
≤ 200 | Cc1ccc(O)c(C)c1-n1c(N)c(C(N)=O)c2cc3nc[nH]c3nc21 [Compound 64]
≤ 200 | Cc1ccc(O)c(C)c1-n1c(N)c(C(N)=O)c2cc3c(nc21)NCC3 [Compound 80]
≤ 200 | Cc1cc2c(C(N)=O)c(N)n(-c3c(C)ccc(O)c3C)c2c(C#N)c1C [Compound 173]
≤ 200 | Cc1cc2c(cc1C#N)c(C(N)=O)c(N)n2-c1c(C)ccc(O)c1C [Compound 154]
≤ 200 | Cc1ccc(O)c(C)c1-n1c(N)c(C(N)=O)c2cc3cn(C)cc3nc21 [Compound 73]
≤ 200 | Cc1cc2c(C(N)=O)c(N)n(-c3c(C)c(O)cc4ccoc34)c2nc1C [Compound 130]
≤ 200 | Cc1ccc(O)c(C)c1-n1c(N)c(C(N)=O)c2cc3c(nc21)CCCN3C [Compound 104]
≤ 200 | Cc1cc(F)c(O)c(C)c1-n1c(N)c(C(N)=O)c2cc3ccccc3nc21 [Compound 180]
≤ 200 | Cc1c(O)cc(F)c(C)c1-n1c(N)c(C(N)=O)c2cc3c(nc21)CCCC3 [Compound 202]
≤ 200 | Cc1ccc(O)c(C)c1-n1c(N)c(C(N)=O)c2cc3ccoc3nc21 [Compound 61]
≤ 200 | Cc1ccc(O)c(C)c1-n1c(N)c(C(N)=O)c2cc3ncccc3nc21 [Compound 50]

IC50 [nM] | Compound
≤ 200 | Cc1ccc(O)c(C)c1-n1c(N)c(C(N)=O)c2cc(C#N)c(C)nc21 [Compound 9]
≤ 200 | Cc1ccc(O)c(C)c1-n1c(N)c(C(N)=O)c2cc3c(ccn3C)nc21 [Compound 72]
≤ 200 | Cc1cc2c(C(N)=O)c(N)n(-c3c(C)cc(F)c(O)c3C)c2nc1C#N [Compound 146]
≤ 200 | Cc1ccc(O)c(C)c1-n1c(N)c(C(N)=O)c2cc3c(nc21)CCO3 [Compound 18]
≤ 200 | Cc1cc2c(C(N)=O)c(N)n(-c3c(C)c(O)cc4occc34)c2nc1C [Compound 129]
≤ 200 | Cc1cc(F)c(O)c(C)c1-n1c(N)c(C(N)=O)c2cc3c(nc21)COC3 [Compound 134]
≤ 200 | Cc1cc2c(C(N)=O)c(N)n(-c3c(C)cc(F)c(O)c3Cl)c2nc1C [Compound 8]
≤ 200 | Cc1cc2c(C(N)=O)c(N)n(-c3c(C)ccc(O)c3C(F)(F)F)c2nc1C#N [Compound 187]
≤ 200 | Cc1ccc(O)c(C)c1-n1c(N)c(C(N)=O)c2cc3sccc3nc21 [Compound 75]
≤ 200 | Cc1ccc(O)c(C)c1-n1c(N)c(C(N)=O)c2cc3cnncc3cc21 [Compound 59]
≤ 200 | Cc1ccc(O)c(C(F)(F)F)c1-n1c(N)c(C(N)=O)c2cc(C#N)c(C)nc21 [Compound 181]
≤ 200 | COc1cc(O)c(C)c(-n2c(N)c(C(N)=O)c3cc(C)c(C)nc32)c1C [Compound 223]
≤ 200 | Cc1cc2c(C(N)=O)c(N)n(-c3c(C)cc4c(c3C)OCC4)c2nc1C [Compound 152]
≤ 200 | Cc1c(O)cc(F)c(C)c1-n1c(N)c(C(N)=O)c2cc3c(nc21)C=CC3 [Compound 214]
≤ 200 | Cc1ccc(O)c(C)c1-n1c(N)c(C(N)=O)c2cc3c(nc21)CCN3 [Compound 77]
≤ 200 | Cc1ccc(O)c(C)c1-n1c(N)c(C(N)=O)c2cc3ccn(C)c3nc21 [Compound 71]
≤ 200 | Cc1cc2c(C(N)=O)c(N)n(-c3c(C)c(O)cc(Cl)c3C)c2nc1C [Compound 193]
≤ 200 | Cc1ccc(O)c(C)c1-n1c(N)c(C(N)=O)c2cc3c(ncn3C)nc21 [Compound 66]
≤ 200 | Cc1cc2c(C(N)=O)c(N)n(-c3c(C)c(O)cc4c3OCC4)c2nc1C [Compound 118]
≤ 200 | Cc1cc2c(C(N)=O)c(N)n(-c3c(C)c(O)cc(I)c3C)c2nc1C [Compound 217]
≤ 200 | Cc1ccc(O)c(C)c1-n1c(N)c(C(N)=O)c2cc3c(nc21)CCOC3 [Compound 29]

IC50 [nM] | Compound
≤ 200 | Cc1ccc(O)c(C)c1-n1c(N)c(C(N)=O)c2cc3c(nc21)OCCC3 [Compound 35]
≤ 200 | Cc1ccc(O)c(C)c1-n1c(N)c(C(N)=O)c2cc3cscc3nc21 [Compound 76]
≤ 200 | Cc1ccc(O)c(C)c1-n1c(N)c(C(N)=O)c2cc3nccnc3nc21 [Compound 53]
≤ 200 | Cc1ccc(O)c(C)c1-n1c(N)c(C(N)=O)c2cc3c(nc21)OCC3 [Compound 20]
≤ 200 | Cc1cc2c(C(N)=O)c(N)n(-c3c(C)cc(F)c(O)c3C)c2nc1C (single isomer, unassigned) [Compound 5]
≤ 200 | Cc1cc2c(C(N)=O)c(N)n(-c3c(C)cnc(O)c3C)c2nc1C [Compound 177]
≤ 200 | Cc1ccc(O)c(C)c1-n1c(N)c(C(N)=O)c2cc3ncn(C)c3nc21 [Compound 65]
≤ 200 | Cc1c(O)cc(F)c(C)c1-n1c(N)c(C(N)=O)c2cc3c(nc21)CCC3 [Compound 199]
≤ 200 | Cc1ccc(O)c(C)c1-n1c(N)c(C(N)=O)c2cc3cocc3nc21 [Compound 63]
≤ 200 | Cc1nc2c(cc1C#N)c(C(N)=O)c(N)n2-c1c(C(F)(F)F)ccc(O)c1C [Compound 184]
≤ 200 | Cc1cc2c(C(N)=O)c(N)n(-c3c(C)c(F)cc(O)c3Cl)c2nc1C [Compound 25]
≤ 200 | Cc1cc(F)c(O)c(C)c1-n1c(N)c(C(N)=O)c2cc(C#N)c(C)nc21 [Compound 140]
≤ 200 | Cc1ccc(O)c(C)c1-n1c(N)c(C(N)=O)c2cc3c(nc21)C=CC3 [Compound 109]
≤ 200 | Cc1ccc(O)c(C)c1-n1c(N)c(C(N)=O)c2cc3scnc3nc21 [Compound 70]
≤ 200 | Cc1ccc(O)c(C)c1-n1c(N)c(C(N)=O)c2cc3c(nc21)CN(C)C3 [Compound 93]
≤ 200 | Cc1ccc(O)c(C)c1-n1c(N)c(C(N)=O)c2cc3nccnc3cc21 [Compound 60]
≤ 200 | Cc1ccc(O)c(C)c1-n1c(N)c(C(N)=O)c2cc3c(nc21)N(C)CC3 [Compound 90]
≤ 200 | Cc1cc2c(C(N)=O)c(N)n(-c3c(C)cc4c(c3C)NCC4)c2nc1C [Compound 149]
≤ 200 | Cc1ccc(O)c(C)c1-n1c(N)c(C(N)=O)c2cc3c(nc21)CCN(C)C3 [Compound 96]
≤ 200 | Cc1cc2c(C(N)=O)c(N)n(-c3c(C(F)(F)F)ccc(O)c3C)c2nc1C#N [Compound 186]
≤ 200 | Cc1cc2c(C(N)=O)c(N)n(-c3c(C)c(O)cc4c3CCC4)c2nc1C [Compound 115]

IC50 [nM] | Compound
≤ 200 | Cc1cc2c(C(N)=O)c(N)n(-c3c(C)c(O)cc(C#N)c3C)c2nc1C [Compound 220]
≤ 200 | Cc1ccc(O)c(C)c1-n1c(N)c(C(N)=O)c2cc3c(nc21)CCCN3 [Compound 102]
≤ 200 | Cc1cc2c(C(N)=O)c(N)n(-c3c(C)c(C)cc(O)c3C)c2nc1C [Compound 205]
≤ 200 | Cc1ccc(O)c(C)c1-n1c(N)c(C(N)=O)c2cc3cnccc3nc21 [Compound 47]
≤ 200 | Cc1ccc(O)c(C)c1-n1c(N)c(C(N)=O)c2cc3c(nc21)C=CCC3 [Compound 114]
≤ 200 | Cc1cc2c(C(N)=O)c(N)n(-c3c(C)c(O)cc(F)c3Cl)c2nc1C [Compound 24]
≤ 200 | Cc1ccc(O)c(C)c1-n1c(N)c(C(N)=O)c2cc3c(nc21)OCO3 [Compound 38]
≤ 200 | Cc1cc2c(C(N)=O)c(N)n(-c3c(C)ccc(=O)n3C)c2nc1C [Compound 178]
≤ 200 | Cc1ccc(O)c(C)c1-n1c(N)c(C(N)=O)c2cc3ocnc3nc21 [Compound 68]
≤ 200 | Cc1cc2c(C(N)=O)c(N)n(-c3c(C)cc(F)c(O)c3C)c2cc1C#N [Compound 169]
≤ 200 | Cc1ccc(O)c(C)c1-n1c(N)c(C(N)=O)c2cc3c(nc21)CNC3 [Compound 84]
≤ 200 | Cc1c(O)cc(F)c(C)c1-n1c(N)c(C(N)=O)c2cc3c(nc21)COC3 [Compound 131]
≤ 200 | Cc1ccc(O)c(C)c1-n1c(N)c(C(N)=O)c2cc3c(nc21)CC=C3 [Compound 106]
≤ 200 | Cc1c(O)cc(F)c(C)c1-n1c(N)c(C(N)=O)c2cc3ccccc3nc21 [Compound 179]
≤ 200 | Cc1ccc(O)c(C)c1-n1c(N)c(C(N)=O)c2cc3occc3nc21 [Compound 62]
≤ 200 | Cc1ccc(O)c(C)c1-n1c(N)c(C(N)=O)c2cc3ncsc3nc21 [Compound 69]
≤ 200 | Cc1c(O)cc(F)c(C)c1-n1c(N)c(C(N)=O)c2cc3c(nc21)CC=C3 [Compound 211]
≤ 200 | Cc1ccc(O)c(C)c1-n1c(N)c(C(N)=O)c2cc3c(nc21)CCCO3 [Compound 26]

Compound | IC50 [nM]
Cc1cc2c(C(N)=O)c(N)n(-c3c(C)c(O)cc(F)c3C)c2nc1C (single isomer, unassigned) [Compound 1] | ≤ 200
